Measured values as given in paper PMC5314947 (Cancer prevention research (Philadelphia, Pa.), 2009).
Where “and” joins values, the source holds several entries; their conditions need not be identical. Identical values can stand only once.

Columns and labels:
[1] = human, in vivo, po
[2] = human, in vivo, po; remark: listed apart in the source
[3] = rat, in vivo; cited from earlier work
[4] = rhesus monkey, in vivo; cited from earlier work

COc1cc2c(c3oc(=O)c4c(c13)CCC4=O)[C@@H]1C=CO[C@@H]1O2 [AFB1, aflatoxin B1]
AUC_Extrap of AFB1 equivalents in plasma [1]: 50.9 ± 8% | Tmax of AFB1 equivalents in plasma [1]: 1.0 h and ~ 1 h | ka (absorption rate constant) of AFB1 equivalents in plasma [1]: 5.05 ± 1.10 h⁻¹ | t1/2α (harmonic mean) of AFB1 equivalents in plasma [1]: 2.86 h | Á (disposition rate constant) of AFB1 equivalents in plasma [1]: 0.24 ± 0.06 h⁻¹ | β (disposition rate constant) of AFB1 equivalents in plasma [1]: 0.01 ± 0.003 h⁻¹ | AFB1 dose excreted in urine in the first 72 hours [2]: 29.0 ± 2.31% and 34.4 ± 5.60% and 33.3 ± 2.79% | in situ absorption rate constant [3]: 5.84 ± 0.05 h⁻¹ | dose eliminated in urine as unbound within the first 24 hours [4]: ~ 30% | dose remaining in the liver [4]: 13.6% | dose remaining in the plasma [4]: 5.8%
